Measured values published in ChEMBL document CHEMBL1201862, “PubChem BioAssay data set” (2004).
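A five-concentration, 48-hour dose response in 96-well plates underlies each endpoint, interpolated linearly between surrounding concentrations. GI50 = concentration required for 50% inhibition of growth.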 Active and inactive are the calls of the source. Rule as the data show it: active = GI50 up to about 1.1 µM and inactive = higher.

Legend:
Experiment in all cases: growth of human tumour cells (NCI), 48 h
[1] = system: TK-10
[2] = system: PC-3
[3] = system: RXF 393
[4] = system: NCI-H23
[5] = system: 786-0
[6] = system: U-251
[7] = system: NCI-H226
[8] = system: HL-60
[9] = system: EKVX
[10] = system: LOX IMVI
[11] = system: HCC 2998
[12] = system: CAKI-1
[13] = system: MOLT-4
[14] = system: MDA-MB-435
[15] = system: SK-OV-3
[16] = system: K562
[17] = system: SW-620
[18] = system: MDA-N
[19] = system: COLO 205
[20] = system: SK-MEL-5

Measured: GI50

Cc1nc2c(O)cccc2c(=O)[nH]1
inactive: [1] 302 µM | [2] 451 µM | [3] 158 µM | [4] 303 µM | [5] > 1000 µM | [6] 670 µM | [7] 203 µM | [8] 174 µM | [9] 456 µM | [10] 485 µM | [11] 418 µM | [12] 256 µM | [13] 339 µM | [14] 883 µM | [15] 348 µM | [16] 359 µM | [17] > 1000 µM | [18] 504 µM

Nc1cnc2c(c1)c(=O)nc1n2CCS1
inactive: [1] > 100 µM | [2] > 100 µM | [19] > 100 µM | [3] > 100 µM | [4] > 100 µM | [5] > 100 µM | [6] > 100 µM | [7] > 100 µM | [8] > 100 µM | [9] 39.3 µM | [10] > 100 µM | [11] > 100 µM | [12] 72.4 µM | [20] > 100 µM | [13] > 100 µM | [14] > 100 µM | [15] > 100 µM | [16] > 100 µM | [17] > 100 µM | [18] > 100 µM

CCCCC(/C=C\COC1CCCCO1)=C/C(=O)OCC (configuration not stated)
inactive: [1] > 100 µM | [2] 44.9 µM | [19] > 100 µM | [3] 60.7 µM | [4] > 100 µM | [5] 65.2 µM | [6] 44.8 µM | [7] > 100 µM | [8] 29.2 µM | [9] 37 µM | [10] 41.4 µM | [11] > 100 µM | [12] > 100 µM | [20] 92.5 µM | [13] 25.1 µM | [14] > 100 µM | [15] > 100 µM | [16] 45.2 µM | [17] 70.6 µM | [18] 63.1 µM

O=C1NCC2(CCN(CCCC3(c4ccc(F)cc4)OCCO3)CC2)N1c1ccccc1
inactive: [1] > 100 µM | [2] > 100 µM | [19] > 100 µM | [3] > 100 µM | [4] > 100 µM | [5] > 100 µM | [6] > 100 µM | [7] > 100 µM | [8] > 100 µM | [9] > 100 µM | [10] > 100 µM | [11] > 100 µM | [12] 50.1 µM | [20] > 100 µM | [13] > 100 µM | [14] > 100 µM | [16] > 100 µM | [17] 32.7 µM | [18] > 100 µM

O=C(O)c1ccc(C=C2Sc3ccccc3S2)cc1
inactive: [1] 75.9 µM | [2] 50.7 µM | [19] 92.7 µM | [3] 54.5 µM | [4] > 100 µM | [5] 98.2 µM | [6] 48.2 µM | [7] > 100 µM | [8] 35 µM | [9] 45 µM | [10] 52 µM | [11] 8.07 µM | [12] 45.3 µM | [20] 51.6 µM | [13] 42.4 µM | [14] 21.1 µM | [15] 86.9 µM | [16] 70.5 µM | [17] > 100 µM | [18] 29 µM

CN1CC=C(OP(=O)(NCc2ccccc2)N(CCCl)CCCl)CC1 (configuration not stated)
inactive: [1] > 100 µM | [2] > 100 µM | [19] > 100 µM | [3] 40.9 µM | [4] > 100 µM | [5] > 100 µM | [6] > 100 µM | [7] > 100 µM | [8] > 100 µM | [9] > 100 µM | [10] > 100 µM | [11] > 100 µM | [12] > 100 µM | [13] > 100 µM | [14] > 100 µM | [15] > 100 µM | [16] > 100 µM | [17] > 100 µM | [18] > 100 µM

CCCCCc1cc2cc3c(c(O)c2c(=O)[nH]1)C1(CCC3)C(=O)c2c(O)ccc(O)c2C1=O
inactive: [1] 38.6 µM | [2] > 100 µM | [19] > 100 µM | [3] 43 µM | [4] > 100 µM | [5] > 100 µM | [6] > 100 µM | [7] > 100 µM | [8] > 100 µM | [9] > 100 µM | [10] > 100 µM | [11] > 100 µM | [12] > 100 µM | [20] > 100 µM | [13] > 100 µM | [14] > 100 µM | [16] > 100 µM | [17] 56 µM | [18] > 100 µM

CCOC(=O)c1nc2c3c(ncn2n1)Oc1c(c(-c2ccccc2)nn1-c1ccccc1)C3c1ccc(Cl)cc1 (configuration not stated)
inactive: [1] > 100 µM | [2] > 100 µM | [19] > 100 µM | [3] > 100 µM | [4] > 100 µM | [5] > 100 µM | [6] > 100 µM | [7] > 100 µM | [8] > 100 µM | [10] > 100 µM | [11] > 100 µM | [12] > 100 µM | [20] > 100 µM | [14] > 100 µM | [15] > 100 µM | [16] > 100 µM | [17] > 100 µM | [18] > 100 µM

CC(=O)c1ccc(/N=N/N2CCCC2)cc1
inactive: [1] > 100 µM | [2] > 100 µM | [19] > 100 µM | [3] > 100 µM | [4] > 100 µM | [5] > 100 µM | [6] > 100 µM | [7] > 100 µM | [8] 29.5 µM | [9] > 100 µM | [10] > 100 µM | [11] > 100 µM | [12] > 100 µM | [20] > 100 µM | [13] > 100 µM | [14] > 100 µM | [15] > 100 µM | [16] > 100 µM | [17] > 100 µM | [18] > 100 µM

O=C(O)CCC(NC(=O)c1ccc(CNc2nc3cc(C(F)(F)F)ccc3nc2C(=O)O)cc1)C(=O)O (configuration not stated)
inactive: [1] > 100 µM | [2] > 100 µM | [19] > 100 µM | [3] > 100 µM | [4] > 100 µM | [5] > 100 µM | [6] > 100 µM | [7] > 100 µM | [8] > 100 µM | [9] > 100 µM | [10] > 100 µM | [11] > 100 µM | [12] > 100 µM | [13] > 100 µM | [14] > 100 µM | [15] > 100 µM | [16] > 100 µM | [17] > 100 µM | [18] > 100 µM
